Data on one compound can be found in patent US8669257B2, “Phenazine derivatives and uses thereof as potassium channel modulators” (The Johns Hopkins University, priority 2007, dated 2014).

Assay [1] deals with calcium influx in Jurkat T-cells. Description: Calcium imaging assay: store-depletion induced calcium influx in Jurkat T-cells. The format is cell-based, human. Conditions: thapsigargin then 2 mM Ca2+; clofazimine preincubated 5 min. On the procedure:
JurkaT-cells were attached to L-lysine-coated glass dishes (MatTek). Cells were loaded with fura-2-AM (Invitrogen_F-1201) for 45 min before they were washed sequentially with growth medium and Ca^2+-free HBSS. Fluorescence excitation wavelengths were set at 350 and 380 nm, respectively, on a Zeiss Axiovert 200M microscope while emission wavelength was set at 510 nm. Changes in intracellular calcium concentrations were determined by fluorescence intensity ratio ([…]/F380).

In assay [2] the target is T1, Kv1.3 (Homo sapiens, UniProt P22001).
T1 construct: endogenous in cells; host or cells: Jurkat T-cells
The experiment in a line: Immunofluorescence colocalization in Jurkat T-cells. Type of assay: cell-based. Conditions: plasma membrane of Jurkat T-cells. On the procedure: Jurkat T-cells treated with clofazimine were centrifuged onto L-lysine-coated coverslips. Cells were fixed with 4% p-formaldehyde for 15 min. The cells were washed in PBS, permeabilized by −20° C. methanol and blocked with 10% donkey serum in PBS. The fixed cells were then incubated with Kv1.3 primary antibody (sc-17239 at 1:100 dilution) for 1 h. Cells were washed in PBS (3×5 min) and incubated with donkey anti-goat Cy5 antibodies for an additional 1 h. Cells were then washed three times in PBS, mounted, and photographed. Mounting was performed using Vectashield mounting medium (Vector Laboratories) and images were captured using either a Zeiss LSM510 confocal microscope. Merged images were compiled using LSM5 Image Examiner or Adobe Photoshop CS.

In assay [3] the test system is human mixed lymphocyte reaction. The experiment in a line: Human mixed lymphocyte reaction (MLR), [3H]-thymidine incorporation. Type of assay: cell-based. Conditions: FIG. 1B, n=6. On the procedure:
The human MLR was established by coculturing normal human PBMN responder lymphocytes (0.5×10^6) with an equal number of miomycin C-treated stimulator cells in RPMI1640 complete medium. The cells were incubated with varying doses of clofazimine at 37° C. in a humidified atmosphere of 5% CO2 for 4 days. Then 1 μCi of [^3H]-thymidine was added into culture and incubation was continued for 6 h. The cells were harvested and [^3H]-thymidine incorporated into cells was measured in a liquid scintillation counter.
(In general: Dividing cells build labelled thymidine or BrdU into new DNA.)

In assay [4] the target is T2, mouse Kv1.1 (Mus musculus, UniProt P16388).
T2 construct: expressed in transfected cells; host or cells: L929 cells
Description: Patch-clamp of mouse Kv1.1 stably expressed in L929 cells. The format is cell-based. The protocol: (§1) Patch pipettes, pulled from glass capillaries (inner diameter 1.5 mm, Kimble products) with a horizontal puller (Sutter instruments, Modell P-97), were fire-polished, and had resistances between 2 and 4 MOhm. Patch-clamp experiments were performed in the tight-seal whole-cell configuration at room temperature (22-24° C.). High-resolution current recordings were acquired by a computer-based patch-clamp amplifier system (EPC-9, HEKA). Immediately following establishment of the whole-cell configuration, every two seconds voltage ramps of 50 ms duration spanning the voltage range of −100 to +100 mV for Jurkat T-cells and −150 to +150 mV for HEK293 were delivered from a holding potential (Vh) of −70 mV for Jurkats and 0 mV for HEK293 cells over a period of 300-600 s. […] Capacitive currents and series resistance were determined and corrected before each voltage ramp using the automatic capacitance compensation of the EPC-9. […] Kv1.3 currents in Jurkat T-cells were measured at +80 mV. Heterologously expressed Kv1.1, Kv1.2, Kv1.3, Kv1.5 and Kv3.1 were assessed at +80 mV except in Figure S7, where currents were additionally measured at the more physiological voltage of 0 mV. CRAC currents in HEK293 cells were assessed at −80 mV. […]
On the technique in general: In patch-clamp work, channel activity is measured electrically.

The test system of assay [5] is endogenous NFATc2 dephosphorylation. Description: Dephosphorylation of endogenous NFATc2 in Jurkat T-cells (Western blot). Type of assay: cell-based, human. Conditions: ionomycin treatment. On the procedure: Jurkat T-cells were pretreated with indicated compounds for 1 h before 3 μM (final concentration) ionomycin was added. Cells were harvested after 30 min and lysed in a lysis buffer [40 mM Tris (pH 7.8), 1% NP-40, 10 mM EDTA, 60 mM […] and common protease inhibitors] by sonication. NFATc2 was resolved by 8% SDS-PAGE followed by Western blot analysis using anti-NFAT antibodies (Santa-cruz Sc-7296, 1:100 dilution).

For assay [6], the system named is mouse primary T-cells. The experiment in a line: IL-2 production from anti-CD3/anti-CD28-stimulated mouse primary T-cells. Conditions: n=3. Type of assay: cell-based.
Assay [7] addresses T3, rat Kv1.2 (Rattus norvegicus, UniProt P63142).
T3 construct: expressed in transfected cells; host or cells: B82 cells
The experiment in a line: Patch-clamp of heterologous rat Kv1.2 expressed in B82 cells. The format is cell-based. The protocol:
as §1

In assay [8] the test system is AP-1 luciferase reporter. The experiment in a line: AP-1 luciferase reporter assay in Jurkat T-cells. The format is cell-based, human. The following applies: PMA/ionomycin, high concentrations (>1 μM for clofazimine). A general note: A reporter such as luciferase makes a cellular process visible.
In assay [9] the test system is graft versus host disease. The following applies: open label study; cited from earlier work.
The subject of assay [10] is EGFP-NFATc3 nuclear translocation. Description: NFAT nuclear translocation in Jurkat T-cells stimulated by ionomycin. Type of assay: cell-based, human. The following applies: 1 μM ionomycin.
Assay [11] has as its target T4, human Kv1.5 (Homo sapiens, UniProt P22460).
T4 construct: expressed in transfected cells; host or cells: MEL cells
Description: Patch-clamp of heterologous human Kv1.5 expressed in MEL cells. Type of assay: cell-based. On the procedure:
as §1

The structures appear in SMILES notation. “Also recorded” adds a separate entry of the source. Some results are limits rather than exact numbers.

T1 sequence (P22001 whole entry): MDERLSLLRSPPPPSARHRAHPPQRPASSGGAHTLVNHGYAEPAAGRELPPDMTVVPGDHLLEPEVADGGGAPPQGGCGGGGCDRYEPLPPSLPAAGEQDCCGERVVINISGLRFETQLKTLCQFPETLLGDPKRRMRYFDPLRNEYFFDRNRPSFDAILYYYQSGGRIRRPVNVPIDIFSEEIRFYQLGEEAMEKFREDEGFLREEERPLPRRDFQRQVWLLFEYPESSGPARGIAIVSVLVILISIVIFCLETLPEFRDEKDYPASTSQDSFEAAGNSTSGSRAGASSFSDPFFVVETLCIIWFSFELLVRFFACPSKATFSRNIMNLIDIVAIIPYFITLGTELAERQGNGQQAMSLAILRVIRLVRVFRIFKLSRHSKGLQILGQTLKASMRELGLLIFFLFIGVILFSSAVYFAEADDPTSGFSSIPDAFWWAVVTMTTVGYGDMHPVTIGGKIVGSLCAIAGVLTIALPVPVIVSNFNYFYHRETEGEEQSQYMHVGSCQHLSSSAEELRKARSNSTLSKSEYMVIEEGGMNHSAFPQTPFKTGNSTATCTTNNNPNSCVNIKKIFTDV
T3 sequence (P63142 whole entry): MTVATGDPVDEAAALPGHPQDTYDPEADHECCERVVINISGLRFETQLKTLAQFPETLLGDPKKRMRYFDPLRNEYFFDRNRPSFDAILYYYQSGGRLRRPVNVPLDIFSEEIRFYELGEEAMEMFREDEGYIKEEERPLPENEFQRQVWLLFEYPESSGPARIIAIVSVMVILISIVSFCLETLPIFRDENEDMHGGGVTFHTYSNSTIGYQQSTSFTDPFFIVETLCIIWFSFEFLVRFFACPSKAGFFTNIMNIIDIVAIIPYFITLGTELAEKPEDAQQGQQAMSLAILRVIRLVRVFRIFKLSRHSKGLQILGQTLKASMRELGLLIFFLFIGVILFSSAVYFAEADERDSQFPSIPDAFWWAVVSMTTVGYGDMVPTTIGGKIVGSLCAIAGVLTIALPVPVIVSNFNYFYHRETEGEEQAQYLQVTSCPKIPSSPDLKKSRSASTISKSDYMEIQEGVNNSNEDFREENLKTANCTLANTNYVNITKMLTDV
T4 sequence (P22460 whole entry): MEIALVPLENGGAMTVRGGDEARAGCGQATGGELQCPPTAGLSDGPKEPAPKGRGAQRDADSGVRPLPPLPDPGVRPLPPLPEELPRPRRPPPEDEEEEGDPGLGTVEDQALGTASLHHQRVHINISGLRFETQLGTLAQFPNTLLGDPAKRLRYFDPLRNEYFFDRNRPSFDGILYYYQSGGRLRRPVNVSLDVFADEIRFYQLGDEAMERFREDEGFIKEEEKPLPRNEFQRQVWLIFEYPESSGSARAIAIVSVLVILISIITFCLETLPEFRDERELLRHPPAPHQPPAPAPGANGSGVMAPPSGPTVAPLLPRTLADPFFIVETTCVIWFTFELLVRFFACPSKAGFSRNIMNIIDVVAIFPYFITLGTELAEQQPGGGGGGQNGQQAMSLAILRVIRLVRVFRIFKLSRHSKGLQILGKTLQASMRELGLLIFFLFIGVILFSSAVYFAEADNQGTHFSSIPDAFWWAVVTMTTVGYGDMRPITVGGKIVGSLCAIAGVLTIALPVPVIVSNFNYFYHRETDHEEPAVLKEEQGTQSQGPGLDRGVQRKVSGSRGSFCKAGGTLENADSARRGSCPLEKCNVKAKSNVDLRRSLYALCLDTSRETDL
T2 sequence (P16388 whole entry): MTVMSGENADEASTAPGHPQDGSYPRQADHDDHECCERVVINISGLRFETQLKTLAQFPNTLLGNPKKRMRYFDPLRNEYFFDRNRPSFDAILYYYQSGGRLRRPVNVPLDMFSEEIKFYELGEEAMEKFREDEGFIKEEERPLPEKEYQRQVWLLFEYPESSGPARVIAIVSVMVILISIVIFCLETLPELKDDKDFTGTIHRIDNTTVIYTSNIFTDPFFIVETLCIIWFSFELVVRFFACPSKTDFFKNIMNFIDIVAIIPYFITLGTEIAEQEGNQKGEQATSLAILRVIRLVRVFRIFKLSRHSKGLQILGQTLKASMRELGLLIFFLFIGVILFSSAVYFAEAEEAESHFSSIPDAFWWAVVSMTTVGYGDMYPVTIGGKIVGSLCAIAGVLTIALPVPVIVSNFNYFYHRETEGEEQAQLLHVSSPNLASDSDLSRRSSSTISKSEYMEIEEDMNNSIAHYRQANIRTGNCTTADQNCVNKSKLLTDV

As a reminder, the IC50 is the point on the concentration scale where inhibition reaches its midpoint. The low end stands for inhibition by little substance, the high end for a need for much substance. In the case of `CC(C)/N=c1\cc2n(-c3ccc(Cl)cc3)c3ccccc3nc-2cc1Nc1ccc(Cl)cc1` [clofazimine, Clofazimine], the “effect on calcium entry” value in assay [1] is “inhibited by clofazimine in a heterogeneous fashion; also recorded: only about a quarter of cells are responsive”. In addition, the “subcellular localization relative to Kv1.3” value is listed as “same subcellular localization pattern” in assay [2] and “colocalizes with Kv1.3” in [2] (listed as Clofazimine). Also, the IC50 in assay [3] was 0.9 ± 0.17 µM; in assay [4] (inferred from block at 10 μM), > 10 µM; in assay [7] (inferred from block at 10 μM), > 10 µM; in assay [11] (inferred from block at 10 μM), > 10 µM. Besides, in [4] (10 μM), the “block of current, mouse Kv1.1” value was “less than 50%”. In addition, the entries for the “effect on dephosphorylation of endogenous NFATc2” value in assay [5] and in assay [5] (listed as Clofazimine) were “inhibited ionomycin-induced dephosphorylation of NFATc2 in a dose-dependent manner” and “inhibits dephosphorylation”, respectively. Besides, in [6], the “inhibition of IL-2 production in primary mouse T-cells” value is reported as “failed to observe a dose-dependent inhibition”. Further, the “block of current, rat Kv1.2” value in [7] (10 μM) is “less than 50%”. For the same compound, the “effect on AP-1 luciferase reporter” value is recorded as “enhanced, rather than inhibited” in assay [8] and “significantly enhances” in [8] (listed as Clofazimine). The “patients able to decrease the amount of other medication” value in [9] is ~25%. The “effect on NFAT nuclear translocation” value in [10] is reported as “blocked the ionomycin-induced nuclear translocation”; in assay [10] (listed as Clofazimine), “inhibits EGFP-NFATc3 nuclear translocation”. Besides, the “block of current, human Kv1.5” value in [11] (10 μM) was “less than 50%”.
